Assay results from article PMC6155273, “Antiprotozoal Activity of Triazole Derivatives of Dehydroabietic Acid and Oleanolic Acid” (Molecules : A Journal of Synthetic Chemistry and Natural …, 2017).
In brackets after ≈: the same amount, converted by molar mass. Read-outs that look alike come from different tables or passages of the source.

Legend:
T. cruzi epimastigotes = test: Antiepimastigote activity, T. cruzi CL-B5 lacZ (CPRG); assay type: cell-based, Trypanosoma cruzi; conditions: clone CL-B5, 72 h; for IC50: Trypanosoma cruzi
Description: For in vitro studies of T. cruzi, the clone CL-B5 was used (donated by Faculty of Pharmacy, Complutense University, Madrid, Spain). Parasites were stably transfected with the Escherichia coli β-galactosidase gene (lacZ). Epimastigotes were grown at 28 °C in liver infusion tryptose broth (Difco, Detroit, MI, USA) with 10% fetal bovine serum (FBS) (Gibco, Carlsbad, CA, USA), penicillin (Ern S.A., Barcelona, Spain), and streptomycin (Reig Jofré S.A., Barcelona, Spain), as described previously, and harvested during the exponential growth phase. Briefly, the screening assay was performed in 96-well microplates (Sarstedt, Inc., Newton, NC, USA) with cultures that had not reached the stationary phase. Epimastigotes were seeded at 2 × 10^5 parasites/mL in 200 µL growth media. The plates were then incubated with the respective compounds at 28 °C for 72 h; afterwards, 50 µL of chlorophenol red-β-D-galactopyranoside (CPRG) solution was added, resulting in a final concentration of 200 µM. The plates were incubated at 37 °C for an additional 4 h and then read at 595 nm. Each concentration was tested in triplicate. The efficacy of each compound was estimated by calculating the IC50 values. These values were calculated by the sigmoidal dose–response curve adjustment using the statistical software program Graph-Pad Prims 3.0 (GraphPhad, San Diego, CA, USA). Benznidazole was used as the reference drug.

[1] = test system: L. braziliensis promastigotes; test: Leishmanicidal activity on L. braziliensis promastigotes (resazurin); assay type: cell-based, Leishmania braziliensis; conditions: 48 h; for IC50: Leishmania braziliensis, read-out: Leishmanicidal Activity on Promastigotes, L. braziliensis, IC50
Description: (§1) Culture of L. braziliensis (MHOM/BR/75/M2904), and L. infantum (MHOM/FR/91/LEM2259V) was obtained from the Facultad de Farmacia (Universidad Complutense de, Madrid, Spain). The maintenance of the strains, the form of cultivation, and the isolation of shape promastigota were performed following the procedures described by Roldos et al.. The promastigotes were grown at 22 °C in Schneider’s Drosophila medium supplemented with 20% FBS. The assay was performed using a modification of a previous method. Promastigotes (2 × 10^6 parasites/well) were cultured in 96-well plastic plates. Compounds were dissolved in dimethylsulfoxide (DMSO). Different dilutions of the compounds with a final volume up to 200 µL were added. After 48 h at 26 °C, 20 µL of a 2 mM resazurin solution was added, and the oxidation-reduction was quantified at 570 and 600 nm. The solution of resazurin was prepared at 2.5 mM in phosphate buffered solution (PBS), pH 7.4, and filtered through 0.22 µm prior to use. All tests were carried out in triplicate. Resazurin sodium salt was obtained from Sigma-Aldrich (St. Louis, MO, USA) and stored at 4 °C protected from light. The efficacy of each compound was estimated by calculating the IC50 values.

[2] = Cytotoxicity on NCTC-Clone 929 fibroblasts (resazurin); assay type: cell-based; conditions: mouse
Description: The cell line used was NCTC-Clone 929, which was grown in Minimal Essential Medium (Sigma) supplemented with 10% heat-inactivated FBS, penicillin G (100 U/mL), and streptomycin (100 µg/mL). Cell cultures were maintained at 37 °C in a humidified 5% CO2 atmosphere. The procedure for cell viability measurement was evaluated with resazurin by a colorimetric method. The cells were plated in 96-microtiter plates at 3 × 10^4 cells per well in a 100 µL growth medium. The cells were grown overnight at 37 °C, 5% CO2. Thereafter, the medium was removed and the compounds were added in a 200 µL medium for 24 h. After incubation, 20 µL of a 2 mM resazurin solution was added to each well. The plates were incubated for 3 h to allow optimal oxidation-reduction. The reduction of resazurin was determined by dual wavelength absorbance measurement at 490 and 595 nm. Background was subtracted. Each concentration was assayed three times. Medium and drug controls were used in each test as blanks.

[3] = test system: L. infantum promastigotes; test: Leishmanicidal activity on L. infantum promastigotes (resazurin); assay type: cell-based, Leishmania infantum; conditions: 48 h; for IC50: Leishmania infantum, read-out: Leishmanicidal Activity on Promastigotes, L. infantum, IC50
Description: as §1

SMILES | IC50 (T. cruzi epimastigotes) | IC50 [1] | IC50 at 24 h [2] | IC50 [3] | IC50 ([1]; promastigotes) | IC50 ([3]; promastigotes) | Antiepimastigote Activity of T. cruzi, IC50 (T. cruzi epimastigotes) | Leishmanicidal Activity on Promastigotes, L. braziliensis, IC50 ([1]; promastigotes) | Leishmanicidal Activity on Promastigotes, L. infantum, IC50 ([3]; promastigotes)
COC(=O)[C@]12CCC(C)(C)C[C@H]1C1=CCC3[C@@]4(C)CC[C@H](OC(=O)CCc5cn(-c6ccccc6)nn5)C(C)(C)C4CC[C@@]3(C)[C@]1(C)CC2 (stereo partly drawn) [Compound 22] | > 256 µg/mL | > 256 µg/mL | > 256 µg/mL | > 256 µg/mL | – | – | – | – | –
CC(C)c1ccc2c(c1)CCC1[C@](C)(COC(=O)CCCCc3cn(-c4ccccc4)nn3)CCC[C@]21C (stereo partly drawn) [Compound 6] | > 256 µg/mL | > 256 µg/mL | > 256 µg/mL | > 256 µg/mL | – | – | – | – | –
CC(C)c1ccc2c(c1)CCC1[C@](C)(COC(=O)CCCCc3cn(Cc4cccc(Cl)c4)nn3)CCC[C@]21C (stereo partly drawn) [Compound 14] | > 256 µg/mL | > 256 µg/mL | > 256 µg/mL | > 256 µg/mL | – | – | – | – | –
COc1ccc(-n2cc(CCCCC(=O)OC[C@]3(C)CCC[C@]4(C)c5ccc(C(C)C)cc5CCC34)nn2)cc1 (stereo partly drawn) [Compound 12] | > 256 µg/mL | > 256 µg/mL | > 256 µg/mL | > 256 µg/mL | – | – | – | – | –
Cc1ccc(S(=O)(=O)n2cc(CCC(=O)OC[C@]3(C)CCC[C@]4(C)c5ccc(C(C)C)cc5CCC34)nn2)cc1 (stereo partly drawn) [Compound 15] | 69 µg/mL (≈ 122 µM) | – | 232 µg/mL (≈ 412 µM) | – | 89 µg/mL (≈ 158 µM) | 53 µg/mL (≈ 94 µM) | – | – | –
CC(C)c1ccc2c(c1)CCC1[C@](C)(COC(=O)CCc3cn(Cc4cccc(Cl)c4)nn3)CCC[C@]21C (stereo partly drawn) [Compound 13] | > 256 µg/mL | – | > 256 µg/mL | > 256 µg/mL | 242 µg/mL (≈ 453 µM) | – | – | – | –
Cc1ccc(S(=O)(=O)n2cc(CCC(=O)O[C@H]3CC[C@@]4(C)C(CC[C@]5(C)C4CC=C4[C@@H]6CC(C)(C)CC[C@]6(C(=O)O)CC[C@]45C)C3(C)C)nn2)cc1 (stereo partly drawn) [Compound 27] | 43 µg/mL (≈ 58.6 µM) | – | > 256 µg/mL | – | > 256 µg/mL | > 256 µg/mL | – | – | –
CC(C)c1ccc2c(c1)CCC1[C@](C)(COC(=O)CCCCc3cn(Cc4ccccc4)nn3)CCC[C@]21C (stereo partly drawn) [Compound 8] | > 256 µg/mL | > 256 µg/mL | > 256 µg/mL | > 256 µg/mL | – | – | – | – | –
C#CCCCC(=O)O[C@H]1CC[C@@]2(C)C(CC[C@]3(C)C2CC=C2[C@@H]4CC(C)(C)CC[C@]4(C(=O)O)CC[C@]23C)C1(C)C (stereo partly drawn) [Compound 19] | > 256 µg/mL | – | > 256 µg/mL | – | 109 µg/mL (≈ 198 µM) | 155 µg/mL (≈ 281 µM) | – | – | –
Cc1ccc(S(=O)(=O)n2cc(CCCC(=O)O[C@H]3CC[C@@]4(C)C(CC[C@]5(C)C4CC=C4[C@@H]6CC(C)(C)CC[C@]6(C(=O)O)CC[C@]45C)C3(C)C)nn2)cc1 (stereo partly drawn) [Compound 31] | > 256 µg/mL | > 256 µg/mL | > 256 µg/mL | – | – | 128 µg/mL (≈ 171 µM) | – | – | –
CC1(C)CC[C@]2(C(=O)O)CC[C@]3(C)C(=CCC4[C@@]5(C)CC[C@H](OC(=O)CCCc6cn(CSc7ccccc7)nn6)C(C)(C)C5CC[C@]43C)[C@@H]2C1 (stereo partly drawn) [Compound 33] | > 256 µg/mL | > 256 µg/mL | – | > 256 µg/mL | – | – | – | – | –
CC(C)c1ccc2c(c1)CC[C@H]1[C@](C)(C(=O)O)CCC[C@]21C [DHA, Dehydroabietic acid] | 212 µg/mL (≈ 706 µM) | – | – | – | 44 µg/mL (≈ 146 µM) | 72 µg/mL (≈ 240 µM) | – | – | –
COC(=O)[C@]12CCC(C)(C)C[C@H]1C1=CCC3[C@@]4(C)CC[C@H](OC(=O)CCCc5cn(CSc6ccccc6)nn5)C(C)(C)C4CC[C@@]3(C)[C@]1(C)CC2 (stereo partly drawn) [Compound 34] | > 256 µg/mL | > 256 µg/mL | – | > 256 µg/mL | – | – | – | – | –
CC(C)c1ccc2c(c1)CC[C@H]1[C@](C)(CO)CCC[C@]21C [Dehydroabietinol, dehydroabietinol, reference compound] | – | – | – | – | – | – | 66 µg/mL | 63 µg/mL | 40 µg/mL
N=C(N)c1ccc(OCCCCCOc2ccc(C(=N)N)cc2)cc1 [Pentamidine, reference compound] | – | – | – | – | 3.3 µg/mL (≈ 9.69 µM) | 3.3 µg/mL (≈ 9.69 µM) | – | – | –
COC(=O)[C@]12CCC(C)(C)C[C@H]1C1=CCC3[C@@]4(C)CC[C@H](OC(=O)CCCc5cn(S(=O)(=O)c6ccc(C)cc6)nn5)C(C)(C)C4CC[C@@]3(C)[C@]1(C)CC2 (stereo partly drawn) [Compound 32] | > 256 µg/mL | > 256 µg/mL | – | > 256 µg/mL | – | – | – | – | –
